Test systems include SF-268; HOP-62; CCRF-CEM; HCC 2998; RPMI-8226; M14; RXF 393; CAKI-1; A498; COLO 205; EKVX; HT-29; HCT-116; SF-295; 786-0; OVCAR-8; NCI-H522; UACC-62; SK-MEL-28; SK-MEL-2.
What all share (assay): DTP human tumour cell line panel, 48 h

Data on 11 molecules can be found in ChEMBL document CHEMBL1201862, “PubChem BioAssay data set” (2004).

Each structure is given as a SMILES string.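 Cultured in 96-well plates, cells were exposed to test compound for 48 hours across five concentrations. GI50 is the concentration that inhibits growth by half.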 Activity calls are given as the source filed them. Cut-off read from the data, not from the text of the source: active = GI50 up to about 1.1 µM and inactive = higher.

For `COc1cc2c(c(N)c1OC)C(=O)/C(=C/c1cc(C)c(O)c(C)c1)C2`, the GI50 in the experiment with SF-268 is < 0.01 µM (active); in the experiment with HOP-62 it was < 0.0176 µM (active); in the experiment with CCRF-CEM it was < 0.01 µM (active); with HCC 2998, 1.95 µM (inactive); in the experiment on RPMI-8226 it was < 0.01 µM (active); with M14, < 0.01 µM (active). Moreover, the 50% growth inhibitory concentration (GI50) was 0.0323 µM (active) with RXF 393; 4.25 µM (inactive) with CAKI-1; 7.13 µM (inactive) with A498; 5.6 µM (inactive) in the experiment on COLO 205; < 0.01 µM (active) with EKVX; 2.64 µM (inactive) with HT-29. For the same molecule, the GI50 in the experiment with HCT-116 was < 0.01 µM (active); in the experiment on SF-295 it was 0.0562 µM (active); with 786-0, < 0.01 µM (active); in the experiment on OVCAR-8, < 0.01 µM (active); in the experiment on NCI-H522 it was < 0.01 µM (active); with UACC-62 it was < 0.01 µM (active).

Turning to `O=C1OCC/C1=N/O`, the GI50 with SF-268, with CCRF-CEM, in the experiment with HCC 2998, with RPMI-8226, with M14 and with RXF 393 was > 100 µM (inactive) throughout. For the same molecule, the GI50 with SK-MEL-28, in the experiment on A498, with COLO 205, in the experiment on EKVX, with HT-29 and in the experiment on HCT-116 was > 100 µM (inactive) each time. Besides, the GI50 with SF-295, with 786-0, in the experiment with OVCAR-8, in the experiment with NCI-H522, in the experiment with SK-MEL-2 and with UACC-62 was > 100 µM (inactive) throughout.

For `NC1CC(=O)c2c(Br)csc21` (centres undefined), the GI50 was 39.3 µM (inactive) with SF-268; 49.8 µM (inactive) with HOP-62; 42.7 µM (inactive) in the experiment on CCRF-CEM; 19.2 µM (inactive) in the experiment on HCC 2998; 38.5 µM (inactive) with RPMI-8226; > 100 µM (inactive) in the experiment with M14. Also, the GI50 was 54.7 µM (inactive) in the experiment with RXF 393; 55 µM (inactive) in the experiment with CAKI-1; 25.9 µM (inactive) in the experiment on SK-MEL-28; 78 µM (inactive) with A498; 58.1 µM (inactive) in the experiment with COLO 205; 67.6 µM (inactive) in the experiment with EKVX. Besides, the GI50 with HT-29 was 40.6 µM (inactive); in the experiment on HCT-116 it was 46.8 µM (inactive); in the experiment with 786-0 it was 82 µM (inactive); in the experiment on OVCAR-8, 42.9 µM (inactive); in the experiment on SK-MEL-2, 41 µM (inactive); with UACC-62 it was 21.3 µM (inactive).

Regarding `COc1cc(Oc2nc3ccc(C(F)(F)F)cc3nc2-c2ccccc2)cc(OC)c1OC`, the GI50 was 22.8 µM (inactive) in the experiment with SF-268; 11 µM (inactive) with HOP-62; 48.5 µM (inactive) in the experiment with CCRF-CEM; 36.2 µM (inactive) with HCC 2998; 36.8 µM (inactive) with RPMI-8226; 11 µM (inactive) in the experiment on RXF 393. In addition, the GI50 was 5.06 µM (inactive) in the experiment on CAKI-1; 33.9 µM (inactive) in the experiment with SK-MEL-28; 32.9 µM (inactive) in the experiment with A498; 15.2 µM (inactive) in the experiment on COLO 205; 37.8 µM (inactive) in the experiment on EKVX; 21.2 µM (inactive) with HT-29. In addition, the GI50 was 10.8 µM (inactive) in the experiment on HCT-116; 9.48 µM (inactive) with SF-295; 3.21 µM (inactive) in the experiment with 786-0; 45.8 µM (inactive) in the experiment on OVCAR-8; 25.1 µM (inactive) in the experiment on NCI-H522; 11 µM (inactive) in the experiment with UACC-62.

As to `Cc1c(Cl)c(S(N)(=O)=O)cc2c1N=CNS2(=O)=O`, the GI50 in the experiment with SF-268, with HOP-62, in the experiment on CCRF-CEM, in the experiment with HCC 2998, with RPMI-8226 and in the experiment on M14 was > 100 µM (inactive) each time. In addition, the GI50 with RXF 393 was > 100 µM (inactive); with CAKI-1 it was > 100 µM (inactive); in the experiment with SK-MEL-28, > 100 µM (inactive); in the experiment with A498, > 100 µM (inactive); in the experiment with COLO 205, > 100 µM (inactive); with EKVX, 0.507 µM (active). Besides, the GI50 with HT-29, with HCT-116, in the experiment on SF-295, with 786-0, in the experiment with OVCAR-8 and with NCI-H522 was > 100 µM (inactive) in each case. Besides, in the experiment on UACC-62, the GI50 is > 100 µM (inactive).

Consider `Fc1cccc(C2SCC3=Nc4ccccc4CN32)c1` (centres undefined), for which the GI50 with SF-268 is 67.1 µM (inactive); with HOP-62, 38.9 µM (inactive); in the experiment with CCRF-CEM, 29.9 µM (inactive); in the experiment on HCC 2998, 70.1 µM (inactive); in the experiment with RPMI-8226 it was 36.8 µM (inactive); with M14, 33.3 µM (inactive). The GI50 with RXF 393 is 26.8 µM (inactive); in the experiment with CAKI-1, > 100 µM (inactive); with SK-MEL-28, 98.6 µM (inactive); in the experiment with A498, > 100 µM (inactive); in the experiment on COLO 205 it was 28.4 µM (inactive); in the experiment on EKVX, 25.4 µM (inactive). Also, the GI50 is 21.3 µM (inactive) in the experiment with HT-29; 27.8 µM (inactive) in the experiment with HCT-116; 26.6 µM (inactive) with SF-295; 37.8 µM (inactive) in the experiment with 786-0; 27 µM (inactive) with OVCAR-8; 13.4 µM (inactive) in the experiment on SK-MEL-2. In addition, the GI50 in the experiment on UACC-62 is 50.2 µM (inactive).

As to `COC(=O)/C(C#N)=C1\NC(=O)c2ccccc21`, the GI50 in the experiment on SF-268, in the experiment with HOP-62, in the experiment with CCRF-CEM, in the experiment on HCC 2998, in the experiment with RPMI-8226 and with M14 was > 100 µM (inactive) throughout. The GI50 in the experiment on RXF 393, in the experiment with SK-MEL-28, in the experiment with A498, in the experiment with COLO 205, with EKVX and with HT-29 was > 100 µM (inactive) in each case. In addition, the GI50 with HCT-116, with SF-295, in the experiment on 786-0, in the experiment on OVCAR-8, with NCI-H522 and in the experiment on UACC-62 was > 100 µM (inactive) throughout.

`CC(C)=CC(=O)CC(=O)C(=O)Nc1ccc(Cl)c(Cl)c1`: the GI50 in the experiment with SF-268, with HOP-62, in the experiment on CCRF-CEM, in the experiment with HCC 2998, in the experiment with RPMI-8226 and with M14 was > 100 µM (inactive) throughout. The GI50 with RXF 393, with SK-MEL-28, with A498, in the experiment on COLO 205, with EKVX and with HT-29 was > 100 µM (inactive) throughout. Further, the GI50 in the experiment on HCT-116, with SF-295, with 786-0, in the experiment with OVCAR-8, in the experiment with NCI-H522 and in the experiment with SK-MEL-2 was > 100 µM (inactive) in each case. Also, the GI50 in the experiment with UACC-62 was > 100 µM (inactive).

For `CC(O[Si](c1ccccc1)(c1ccccc1)C(C)(C)C)[C@H](NC(=O)OC(C)(C)C)C(=O)O` (some centres undefined), the GI50 with SF-268 was 57.3 µM (inactive); in the experiment on HOP-62, 49.8 µM (inactive); with CCRF-CEM, 10.2 µM (inactive); in the experiment with HCC 2998, 36.2 µM (inactive); in the experiment with RPMI-8226 it was 35.6 µM (inactive); in the experiment with M14, 38.3 µM (inactive). The GI50 in the experiment with RXF 393 was 35 µM (inactive); in the experiment with CAKI-1 it was 40.3 µM (inactive); in the experiment on SK-MEL-28, 50 µM (inactive); in the experiment with A498, 82.6 µM (inactive); in the experiment on COLO 205, 22.7 µM (inactive); in the experiment with EKVX, 33.5 µM (inactive). For the same molecule, the GI50 was 32.2 µM (inactive) with HT-29; 34.2 µM (inactive) in the experiment on HCT-116; 19.8 µM (inactive) in the experiment on SF-295; 42.4 µM (inactive) with 786-0; 42 µM (inactive) in the experiment with OVCAR-8.

Consider `Clc1cccc(Cl)c1C1SCc2nc3ccccc3n21` (centres undefined), for which the GI50 is > 100 µM (inactive) in the experiment on SF-268; > 100 µM (inactive) in the experiment on HOP-62; 54.5 µM (inactive) with CCRF-CEM; > 100 µM (inactive) with HCC 2998; 9.2 µM (inactive) in the experiment on RPMI-8226; > 100 µM (inactive) in the experiment on M14. Further, the GI50 in the experiment with RXF 393 is > 100 µM (inactive); with CAKI-1 it was > 100 µM (inactive); in the experiment on A498 it was > 100 µM (inactive); with COLO 205, > 100 µM (inactive); in the experiment with EKVX, 78.3 µM (inactive); in the experiment with HT-29, 43.9 µM (inactive). In addition, the GI50 in the experiment on HCT-116 was 9.23 µM (inactive); with SF-295, > 100 µM (inactive); in the experiment on 786-0 it was > 100 µM (inactive); with OVCAR-8 it was > 100 µM (inactive); with NCI-H522 it was > 100 µM (inactive); in the experiment on UACC-62, 50.1 µM (inactive).

Turning to `Cn1cnc([N+](=O)[O-])c1Sc1nc2ccccc2[nH]1`, the GI50 in the experiment on SF-268 is 14.3 µM (inactive); with HOP-62, > 100 µM (inactive); in the experiment on CCRF-CEM, 17.9 µM (inactive); with HCC 2998, 12.3 µM (inactive); in the experiment with RPMI-8226, 15.5 µM (inactive); with M14, 24.2 µM (inactive). For the same molecule, the GI50 in the experiment with RXF 393 is 11.4 µM (inactive); in the experiment with CAKI-1 it was 3.68 µM (inactive); with SK-MEL-28 it was 13.1 µM (inactive); in the experiment on A498 it was 21.2 µM (inactive); in the experiment with COLO 205, 10.4 µM (inactive); with EKVX, 14.1 µM (inactive). The GI50 with HT-29 was 27.7 µM (inactive); in the experiment with HCT-116, 14.8 µM (inactive); in the experiment on SF-295, > 100 µM (inactive); in the experiment with 786-0 it was 41.1 µM (inactive); in the experiment on OVCAR-8, 11.7 µM (inactive).
